This is an account of results in patent US20010044151A1, “Ligands for modulating the expression of exogenous genes via an ecdysone receptor complex” (priority 1998, published 2001).

The target of the assay is T1, VgEcR and RXR heterodimeric receptor (pVgRXR) with pIND/LacZ(SPI) in CHO cells (Drosophila melanogaster, UniProt P34021, E282G/G283S/G286V).
T1 construct: host or cells: CHO cells (ATCC CCL-61), transiently transfected or stably transformed with pVgRXR
T1 sequence (P34021 1-878 E282G/G283S/G286V): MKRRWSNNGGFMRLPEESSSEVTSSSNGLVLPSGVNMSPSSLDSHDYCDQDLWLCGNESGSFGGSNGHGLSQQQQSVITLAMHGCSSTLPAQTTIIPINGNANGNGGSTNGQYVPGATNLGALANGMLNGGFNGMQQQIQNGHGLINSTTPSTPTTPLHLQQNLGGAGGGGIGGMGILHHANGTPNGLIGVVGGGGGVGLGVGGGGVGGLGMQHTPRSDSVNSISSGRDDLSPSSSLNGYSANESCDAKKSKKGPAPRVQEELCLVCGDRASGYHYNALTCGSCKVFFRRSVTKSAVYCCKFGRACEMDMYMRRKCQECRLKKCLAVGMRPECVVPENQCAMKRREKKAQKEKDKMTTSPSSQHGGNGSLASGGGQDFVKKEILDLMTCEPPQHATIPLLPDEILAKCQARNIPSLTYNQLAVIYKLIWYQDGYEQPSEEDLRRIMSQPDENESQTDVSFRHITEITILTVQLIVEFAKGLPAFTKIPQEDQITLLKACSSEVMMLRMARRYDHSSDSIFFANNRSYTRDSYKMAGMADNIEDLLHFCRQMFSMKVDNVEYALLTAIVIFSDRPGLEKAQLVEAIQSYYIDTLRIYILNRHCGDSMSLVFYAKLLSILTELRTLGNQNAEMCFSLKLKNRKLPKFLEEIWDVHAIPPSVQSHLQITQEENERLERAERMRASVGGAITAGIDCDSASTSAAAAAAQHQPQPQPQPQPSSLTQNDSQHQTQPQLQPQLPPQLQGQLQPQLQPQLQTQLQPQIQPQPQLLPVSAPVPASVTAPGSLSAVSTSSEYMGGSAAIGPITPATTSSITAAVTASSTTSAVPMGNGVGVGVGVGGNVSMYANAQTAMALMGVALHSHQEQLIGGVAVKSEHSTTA
T1 sequence (P19793 1-462 partner): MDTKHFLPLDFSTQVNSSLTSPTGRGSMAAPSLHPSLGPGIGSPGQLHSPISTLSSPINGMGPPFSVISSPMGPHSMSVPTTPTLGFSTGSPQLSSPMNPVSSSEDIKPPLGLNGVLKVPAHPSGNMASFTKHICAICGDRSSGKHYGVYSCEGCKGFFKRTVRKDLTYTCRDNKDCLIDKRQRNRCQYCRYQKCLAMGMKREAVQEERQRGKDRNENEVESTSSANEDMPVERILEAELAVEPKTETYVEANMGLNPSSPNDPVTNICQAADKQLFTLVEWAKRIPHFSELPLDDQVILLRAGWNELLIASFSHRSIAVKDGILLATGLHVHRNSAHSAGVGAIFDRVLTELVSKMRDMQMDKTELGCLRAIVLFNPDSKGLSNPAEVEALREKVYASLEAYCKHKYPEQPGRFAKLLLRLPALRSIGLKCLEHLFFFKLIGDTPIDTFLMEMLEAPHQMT
As to the kind of experiment: β-Galactosidase gene activation in stably transformed CHO cells. Type of assay: cell-based. The following applies: ligand 10 μM; for β-Galactosidase activity: average of triplicate samples, no ligand = 200; for Induction Ratio (RLU in presence and absence of the ligand): β-galactosidase. The source says:
pVgRXR (Invitrogen Corp., Carlsbad, Calif.) is an […] plasmid that expresses both VgEcR and RXR to form a modified heterodimeric nuclear receptor (see No, D., et. al., (1996) Proc. Natl. Acad. Sci. USA, 93, 3346-3351). The ecdysone receptor (VgEcR) is derived from the natural Drosophila ecdysone receptor and modified to contain the VP16 transactivation domain (see Cress, W. D., and Triezenberg, S. J. (1991), Science 251, 87-90; Sadowski, I., et. al (1988) Nature 335, 563-564; Triezenberg, S. J et. al., (1988), Genes Dev 2, 718-729; Triezenberg, S. J., et. al., (1988), Genes Dev 2, 730-742). RXR as the mammalian homologue of USP (ultraspiracle), the natural partner to the Drosophila ecdysone receptor (see Yao, T. -P., et. al., (1993), Nature 366, 476-479, Yao, T. -P., et. al., (1992), Cell 71, 63-72). The P-box region of the VgEcR DNA binding domain was modified to recognize the hybrid ecdysone response element that consists of one half-site from the gluccorticoid response element (see Umesono, K., and Evans, R. M. (1989), Cell 57, 1139-1146) and one half-site from the natural ecdysone response element. This hybrid response element reduces any possible interaction with the farsenoid X receptor that may bind the natural ecdysone responsive element (EcRE). The cytomegalovirus enhancer-promoter drives expression of VgEcR, and the Rous sarcoma virus promoter drives expression of RXR. The vector pIND (Invitrogen Corp) is a 5024 bp vector based on pcDNA3.1. It contains five hybrid E/GREs recognized by the modified ecdysone receptor expressed from pVgRXR and a minimal heat shock promoter (see Yao, T. P., et. al., (1993), Nature, 366, 476-479). pIND/lacZ (Invitrogen Crop.) is a 8170 bp plasmid that contains the β-galactosidase gene as a reporter enzyme. Cotransfection of pIND/lacZ and pVgRXR results in the induction of β-galactosidase expression upon addition of ecdysone agonists such as muristerone A. The reporter plasmid pIND/luc was constructed by subcloning the firefly luciferase gene from pGL3 (Promega/E1741) as a Nhe I-BamHI fragment into pIND, also digested with Nhe I and BamHI.
CHO cells stably transformed with pVgRXR and pIND/LacZ(SPI) (Invitrogen Crop.) were maintained in Hams F-12 media containing 10% FBS, 2 mM glutamine, 300 μg/ml Zeocin (Invitrogen Crop.) and 300 μg/ml Hygromycin B. pIND(SPI), an alternative to the pIND vector, can be induced to absolute expression levels five-fold greater than that of pIND due to the presence of 3 cis-acting SPI elements. Basal expression levels are correspondingly greater.
Stock solutions (10^−2 M) were prepared for muristerone A and the non-steroidal ligands of the present invention in ethanol and acetone respectively, and stored at −20° C. Twenty-four hours after transfection, a test compound was added at a final concentration of 10 μM (10^−5 M) to each 1 ml cell culture well. Muristerone A (Sigma, M7888) at 10 μM concentration was used as a positive control. Acetone alone was added as a negative control.
Reporter gene expression was evaluated 24-48 hours after treatment of transiently transfected cells or 24 hours after treatment of the stably transformed cell line with test ligands. β-galactosidase was assayed by either staining fixed cells or assaying for enzymatic activity in cellular lysates. β-galactosidase catalyzes the hydrolysis of the β-galactoside, X-gal (5-bromo-4-chloro-3-indolyl-β-galactopyranoside) producing a blue color within the fixed cells (Invitrogen, K1465-01) that can be visualized under a microscope. Alternatively, reporter lysis buffer (RLB; Promega/E397A) was used to lyse the cells for the detection of β-galactosidase activity using a chemiluminescent substrate, Galacto-Star (Tropix/BM100S). The cells within each 12-well plate were lysed with 250 μl of RLB. Twenty μl of each extract was assayed with 100 μl of substrate. […]

In the case of `CC(C)CC[C@@H](O)[C@](C)(O)[C@H]1CC[C@@]2(O)C3=CC(=O)[C@]4(O)C[C@@H](O)[C@@H](O)C[C@]4(C)[C@H]3[C@H](O)C[C@]12C` [CE-3, muristerone A, reference compound], the β-Galactosidase activity is recorded as 9830 RLU; the “Induction Ratio (RLU in presence and absence of the ligand)” value (“Induction Ratio” for short) amounted to 49.

Take `CCc1ccc(C(=O)NN(C(=O)c2cc(C)cc(C)c2)C(C)(C)C)cc1` [CE-1, N-(4-ethylbenzoyl)-N′-(3,5-dimethylbenzoyl)-N′-tert-butyl-hydrazine, reference compound]: the β-Galactosidase activity is on record as 323 RLU; the “Induction Ratio” value is given as 2.

On to `Cc1cc(C)cc(C(=O)N(NC(=O)c2ccc3c(c2C)OCCO3)C(C)(C)C)c1` [Ligand 2], for which the β-Galactosidase activity stood at 536 RLU; the “Induction Ratio” value amounted to 3.

For the molecule `COc1cccc(C(=O)NN(C(=O)c2cc(C)cc(C)c2)C(C)(C)C)c1C` [Ligand 3], the β-Galactosidase activity is 681 RLU; the “Induction Ratio” value was 3.

As to `CCc1c(OC)cccc1C(=O)NN(C(=O)c1cc(C)cc(C)c1)C(C)(C)C` [Ligand 5], the β-Galactosidase activity worked out at 11599 RLU; the “Induction Ratio” value came to 58.

Take `CCc1c(OC)cccc1C(=O)NN(C(=O)c1cc(Cl)cc(Cl)c1)C(C)(C)C` [Ligand 13]: the β-Galactosidase activity was found to be 6667 RLU; the “Induction Ratio” value was 33.

As to `CCc1c(OC)cccc1C(=O)NN(C(=O)c1cc(F)cc(F)c1)C(C)(C)C` [Ligand 4], the β-Galactosidase activity is 1963 RLU; the “Induction Ratio” value is listed as 10.

Take `CC(C)(C)N(NC(=O)c1ccccc1)C(=O)c1ccccc1` [CE-2, 1,2-dibenzoyl-1-tert-butyl-hydrazine, reference compound]: the β-Galactosidase activity amounted to 145 RLU; the “Induction Ratio” value was found to be 1.

On to `CCc1c(OC)cccc1C(=O)NN(C(=O)c1cccc(OC)c1)C(C)(C)C` [Ligand 1], for which the β-Galactosidase activity is 1123 RLU; the “Induction Ratio” value turned out to be 6.

As to `CCOc1cccc(C(=O)NN(C(=O)c2cc(C)cc(C)c2)C(C)(C)C)c1CC` [Ligand 12], the β-Galactosidase activity came out at 9830 RLU; the “Induction Ratio” value is 49.

On to `CC(C)CC[C@@H](O)[C@](C)(O)[C@H]1CC[C@@]2(O)C3=CC(=O)[C@@H]4C[C@@H](O)[C@@H](O)C[C@]4(C)[C@H]3CC[C@]12C` [CE-4, ponasterone A, reference compound], for which the β-Galactosidase activity is given as 10386 RLU; the “Induction Ratio” value turned out to be 52.
